Results as given in PMC8234734, “Pharmacokinetics and Molecular Modeling Indicate nAChRα4-Derived Peptide HAEE Goes through the Blood–Brain Barrier” (Biomolecules, 2021).

Experiments:
[1] = In vitro stability assay of HAEE in human plasma; assay type: in vitro ADME; details: 1 mM in PBS, 20 µL diluted in 80 µL fresh human plasma, 37 °C, 24 h, MeOH precipitation, RP-HPLC UV 205 nm; data not shown
Experimental: An in vitro assay of the unlabeled peptide stability was performed as described in [19]. Briefly, HAEE was prepared as a 1 mM solution in phosphate-buffered saline and 20 µL of the peptide solution was diluted in 80 µL of human plasma (freshly taken). The solution was incubated at 37 °C for different times, and the reaction was stopped by adding the Roche cOmplete Protease Inhibitor Cocktail (Roche Molecular Biochemicals, Mannheim, Germany). The bulk of the plasma proteins (but none of the peptide) was precipitated in cold methanol (1:4 (v/v) mixture/MeOH) for 1 h at […]. The precipitated proteins were pelleted by centrifugation at 10,000× g for 10 min at 4 °C. The supernatant containing the peptide was concentrated five times under vacuum and separated by RP-HPLC. The area of the peak (UV absorbance at 205 nm) corresponding to the intact peptide was measured and compared with an equivalent sample incubated in phosphate-buffered saline.

[2] = Pharmacokinetics of HAEE in rabbit blood after single i.v. bolus; assay type: in vivo
Experimental: In experiments on rabbits (Table 1, experimental group 1), peptide administration and blood sampling were performed through the large ear veins. To restrict movement, the rabbit was placed in a restrainer with a head hole. Into the right ear, through the large ear vein, 4000 IU of heparin (FSUE “Moscow Endocrine Plant”, Moscow, Russia) in 0.8 mL of saline solution was injected using an insulin syringe, and after 5 min a Flexicath G22 intravenous catheter (Medica LLC, Ivanovo, Russia) was installed into the large ear vein of the left ear for subsequent blood sampling.
A 0.5 mL of the mixture of HAEE and [^3H]HAEE (2000 µCi, at a dose of 120 µg/kg) was injected with an insulin syringe into the right ear vein for 10–15 s, and after 2, 4, 6, 10, 20, 30, 60, 90 and 120 min, approximately 0.5 mL of venous blood was collected through the catheter and placed into pre-weighed plastic tubes. Immediately after collection, blood tubes were frozen in liquid nitrogen and weighed.
(§1) Frozen and weighed tissue samples in plastic tubes were freeze-dried for 48 h. The freeze-dried tissue samples were heated at 65 °C for 30 min, after which they were homogenized, and the peptide fraction was extracted with 90% aqueous acetonitrile containing 1% TFA [13]. To facilitate HPLC analysis of radioactively labeled HAEE and normalize the loss of the peptide during extraction, 10 μg of HAEE was added to the extraction solution for each sample. After centrifugation, the solution containing HAEE and blood components was dried under reduced pressure, stripped with methanol and re-centrifuged. The resulting solution containing a mixture of HAEE and [^3H]HAEE was subjected to evaporation under reduced pressure, re-extraction with 0.1% aqueous TFA solution and subsequent centrifugation. Quantitative analysis of the HAEE peptide was performed using HPLC on a Kromasil C18 column, 4 × 150 mm (Nouryon-Separation Products, Bohus, Sweden) in methanol concentration gradient (12–26% for 13 min), in 0.1% HFBA (heptafluorobutyric acid). The fraction containing the HAEE peptide was collected and its [^3H]HAEE content was determined by liquid scintillation counting. The obtained radioactivity value was normalized to the area of the HAEE peak in the chromatogram (UV absorbance at 220 nm).
(§2) To calculate the pharmacokinetic parameters, we used the values of HAEE peptide concentrations in blood and tissues averaged over three (rabbit) or six (rats and mice) animals. All quantitative values are given as means ± standard deviation. The calculation of pharmacokinetic parameters was performed by combining the model and non-model approaches using the software Borgia 1.03 (NPP Nauka Plus, Rovno, Ukraine) and SigmaPlot 11.0 (Systat Software, San Jose, CA, USA).
Taking this into account, to determine the pharmacokinetic characteristics of HAEE after systemic administration to rabbits, we analyzed the peptide content in the blood for a long period of time, from 2 to 120 min. The peptide was administered i.v. at a dose of 120 μg/kg.

[3] = Pharmacokinetics of HAEE in rat blood after single i.v. bolus (dose dependence, chronic administration); details: for Cmax (maximum concentration in the blood) / AUC(0–∞) / T1/2(el) (elimination half-life) / Tmax: rat blood; for Cmax (maximum concentration in the blood): n = 6, sampling 2-30 min; for AUC(0–∞) / T1/2(el) (elimination half-life) / Tmax / ClT (total body clearance) / Kel (elimination rate constant, central compartment) / MRT (residence time) / Vd(c) (volume of distribution in the central compartment at Cmax) / Vd(extrap) / Vd(β) (volume of distribution in the elimination phase): n = 6
Experimental: In experiments on rats (Table 1, experimental groups 2–5), intravenous (i.v.) administration of the peptide and blood sampling were performed through the jugular veins. For this, in rats anesthetized with a mixture of ketamine (91 mg/kg) and xylazine (9.1 mg/kg), on the ventral side, in the area adjacent to the forelimbs and neck, two longitudinal skin incisions about 2.5 cm long were made on the right and left, and the jugular veins were dissected. An intravenous Flexicath G24 catheter (for heparin and peptide administration) (Medica LLC, Ivanovo, Russia) was installed in the left jugular vein and Flexicath G22 (for blood collection) in the right jugular vein. To prevent blood coagulation, 80 μL of heparin (5000 I.U./mL) was injected through the Flexicath G24 port before the injection of the peptide, and after 5 min a mixture of HAEE and [^3H]HAEE (400 μCi, in doses of 50, 300 or 900 μg/kg) in 200 μL of saline solution was injected for 10–15 s. Following that, after 2, 4, 6, 10, 20 and 30 min, approximately 0.3 mL of venous blood was collected into pre-weighed plastic tubes. After collection, the blood tubes were immediately frozen in liquid nitrogen and weighed. Before the pharmacokinetic study, rats in experimental group 5 were injected daily with i.p. peptide HAEE at a dose of 300 μg/kg for 28 days.
as §1, §2

[4] = Distribution of HAEE in mouse tissues after i.p. bolus; assay type: in vivo; details: mice, i.p. bolus 300 μg/kg
Experimental: In the experiments on mice (Table 1, experimental group 6), a mixture of HAEE and [^3H]HAEE (50 µCi, at a dose of 300 µg/kg) in 200 µL of saline solution was injected intraperitoneally. The animals were decapitated at the end of the period specified by the protocol; blood and studied tissues were collected in weighed plastic tubes, frozen with liquid nitrogen and weighed. When calculating the volumetric concentrations of the total amount of the HAEE peptide (labeled, unlabeled or their mixture) in the blood, the density of the blood was taken equal to 1.056 g/mL [12].
All quantitative values are given as means ± standard deviation.
Within the study, bioavailability of HAEE for several organs and tissues was analyzed with i.p. bolus administration to mice at a dose of 300 μg/kg. The quantity of HAEE in the blood, brain, kidneys, liver, heart and omentum was determined at 2, 4, 6, 10, 15 and 20 min after peptide administration. For all tissues, similar changes in the concentrations of HAEE over time were observed (Figure 3A–C). These were characterized by a bimodal relationship with peaks at 4 and 10–15 min.
Tissue bioavailability of HAEE for the brain was about 3%, which is typical for most pharmacological substances. […] This may indicate accumulation of HAEE in the brain parenchyma due to its active transfer through the BBB and further binding and retention at the affinity sites of neuronal protein targets.

[5] = tested on: B6C3-Tg (APPswe, PSEN1-dE9) 85Dbo/j mice; details: intravenous injections of HAEE; control animals 14.2 ± 3.1; cited from earlier work
Excerpt: (§3) The tetrapeptide HAEE had been proposed as one of the candidate molecules for inhibiting cerebral amyloidogenesis in AD [7]. This peptide is a synthetic analogue of the 35-His-Ala-Glu-Glu-38 (35-HAEE-38) fragment of the extracellular N-terminal domain of subunit α4 of the α4β2 nAChR. This fragment (conservative for humans, mice and chicken) forms the interface for the interaction of α4β2 nAChR with Aβ [5]. It has been previously shown by molecular modeling methods that this interaction is stabilized by ion bridges between the complementary charged side groups of the H/E and E/H amino acid ...

α4β2 nAChR = details: model oocytes, exogenous HAEE; cited from earlier work
Excerpt: as §3

rats = assay: Observation of toxic effects after repeated administration to rats; details: administered repeatedly (daily for 28 days, 300 μg/kg)
[6] = rabbit blood, single i.v. bolus 120 μg/kg, n = 3
[7] = rabbit, single i.v. bolus 120 μg/kg, n = 3
[8] = single i.v. bolus 300 μg/kg after a 28 day course of unlabeled HAEE 300 μg/kg/day
[9] = rat, i.v. bolus, range over doses of 50, 300 and 900 µg/kg
[10] = rat, single i.v. bolus 50 μg/kg
[11] = rat, single i.v. bolus 300 μg/kg after a 28 day course of unlabeled HAEE 300 μg/kg/day
[12] = rat, single i.v. bolus 300 μg/kg
[13] = rat, single i.v. bolus 900 μg/kg
[14] = blood, brain, kidneys, liver, heart, omentum

Acetyl-His-Ala-Glu-Glu-Amide [HAEE]
Stability in human plasma (intact peptide peak area vs sample in PBS) [1]: no significant degradation | Cmax (maximum concentration in the blood) ([2]; rabbit blood, single i.v. bolus 120 μg/kg HAEE + [3H]HAEE, n = 3, sampling 2-120 min, HPLC + liquid scintillation): 255 ng/mL | T1/2(el) (elimination half-life) [2, 6]: 20 min | Tmax [2, 6]: 4 min | AUC(0–∞) ([2]; rabbit blood, single i.v. bolus 120 μg/kg, n = 3, 0-4 min by trapezoidal method): 4421 (ng/mL) × min | ClT (total body clearance) [2, 7]: 100 mL/min | Kel (elimination rate constant, central compartment) [2, 7]: 0.035 min⁻¹ | MRT (residence time) [2, 7]: 29 min | Vd(c) (volume of distribution in the central compartment at Cmax) [2, 7]: 862 mL | Vd(extrap) [2, 7]: 3194 mL | Vd(β) (volume of distribution in the elimination phase) [2, 7]: 2860 mL | Cmax (maximum concentration in the blood) ([3]; single i.v. bolus 50 μg/kg HAEE + [3H]HAEE, HPLC + liquid scintillation): 73.9 ng/mL | AUC(0–∞) ([3]; single i.v. bolus 50 μg/kg): 1383 (ng/mL) × min | T1/2(el) (elimination half-life) ([3]; single i.v. bolus 50 μg/kg): 23 min | Tmax ([3]; single i.v. bolus 50 μg/kg): 4 min | Cmax (maximum concentration in the blood) ([3]; single i.v. bolus 300 μg/kg HAEE + [3H]HAEE, HPLC + liquid scintillation): 439 ng/mL | AUC(0–∞) [3, 8]: 12,137 (ng/mL) × min | T1/2(el) (elimination half-life) [3, 8]: 29 min | Tmax [3, 8]: 4 min | Cmax (maximum concentration in the blood) [3, 8]: 444 ng/mL | AUC(0–∞) ([3]; single i.v. bolus 300 μg/kg): 11,340 (ng/mL) × min | T1/2(el) (elimination half-life) ([3]; single i.v. bolus 300 μg/kg): 22 min | Tmax ([3]; single i.v. bolus 300 μg/kg): 4 min | Cmax (maximum concentration in the blood) ([3]; single i.v. bolus 900 μg/kg HAEE + [3H]HAEE, HPLC + liquid scintillation): 1322 ng/mL | AUC(0–∞) ([3]; single i.v. bolus 900 μg/kg): 47,133 (ng/mL) × min | T1/2(el) (elimination half-life) ([3]; single i.v. bolus 900 μg/kg): 25 min | Tmax ([3]; single i.v. bolus 900 μg/kg): 4 min | ClT [3, 9]: 6.7 to 13 mL/min | MRT [3, 9]: 32 to 36 min | T1/2(el) [3, 9]: 22 to 25 min | ClT (total body clearance) [3, 10]: 13.0 mL/min | Kel (elimination rate constant, central compartment) [3, 10]: 0.031 min⁻¹ | MRT (residence time) [3, 10]: 33 min | Vd(c) (volume of distribution in the central compartment at Cmax) [3, 10]: 107 mL | Vd(extrap) [3, 10]: 504 mL | Vd(β) (volume of distribution in the elimination phase) [3, 10]: 425 mL | ClT (total body clearance) [3, 11]: 8.7 mL/min | Kel (elimination rate constant, central compartment) [3, 11]: 0.024 min⁻¹ | MRT (residence time) [3, 11]: 42 min | Vd(c) (volume of distribution in the central compartment at Cmax) [3, 11]: 111 mL | Vd(extrap) [3, 11]: 382 mL | Vd(β) (volume of distribution in the elimination phase) [3, 11]: 362 mL | ClT (total body clearance) [3, 12]: 9.3 mL/min | Kel (elimination rate constant, central compartment) [3, 12]: 0.031 min⁻¹ | MRT (residence time) [3, 12]: 32 min | Vd(c) (volume of distribution in the central compartment at Cmax) [3, 12]: 122 mL | Vd(extrap) [3, 12]: 296 mL | Vd(β) (volume of distribution in the elimination phase) [3, 12]: 299 mL | ClT (total body clearance) [3, 13]: 6.7 mL/min | Kel (elimination rate constant, central compartment) [3, 13]: 0.028 min⁻¹ | MRT (residence time) [3, 13]: 36 min | Vd(c) (volume of distribution in the central compartment at Cmax) [3, 13]: 108 mL | Vd(extrap) [3, 13]: 291 mL | Vd(β) (volume of distribution in the elimination phase) [3, 13]: 237 mL | Effect of chronic administration on accumulation and pharmacokinetics ([3]; rats, 28 days daily 300 μg/kg then i.v. bolus 300 μg/kg, n = 6 vs intact rats n = 6): does not cause its accumulation in rats and does not affect the nature of its pharmacokinetics | AUC(0–20), blood ([4]; blood, 0–20 min, n = 6 per time point, [3H]HAEE): 2110 (ng/g) × min | fT × 100%, brain ([4]; brain): about 3% | AUC(0–20), brain ([4]; brain, 0–20 min, n = 6 per time point): 70 (ng/g) × min | AUC(0–20), heart ([4]; heart, 0–20 min, n = 6 per time point): 845 (ng/g) × min | AUC(0–20), kidney ([4]; kidney, 0–20 min, n = 6 per time point): 3437 (ng/g) × min | AUC(0–20), liver ([4]; liver, 0–20 min, n = 6 per time point): 777 (ng/g) × min | AUC(0–20), omentum ([4]; omentum, 0–20 min, n = 6 per time point): 395 (ng/g) × min | Time of first peak of HAEE concentration in tissues (bimodal relationship) [4, 14]: 4 min | Time of second peak of HAEE concentration in tissues (bimodal relationship) [4, 14]: 10 to 15 min | Average number of amyloid plaques in a brain section [5]: 5.8 ± 2.1 | Effect on amyloid aggregates formed upon contact with α4β2 nAChR (α4β2 nAChR): are destroyed | Visible toxic effects and abnormalities in animal behavior (rats): did not cause visible toxic effects and abnormalities in animal behavior
